# Assay results as given in patent US7544821B2, “α-Ketol unsaturated fatty acid derivative and plant growth regulating agent using same” (Shiseido Company, Ltd., priority 2004, dated 2009).
# Like-named read-outs stand apart in the source and are kept apart here.
# What was measured:
# [1] = Evaluation of stability: decomposition over time of the diluted aqueous solution, analyzed by HPLC; format: physicochemical; details: 16 mM ethanol solution diluted by water 30-fold, extended standing, HPLC (FIG. 3)
# Description: The stability of the specific α-ketol fatty acid derivative (1A) was evaluated as follows. A 16 mM ethanol solution of the derivative (1A) was diluted by water 30-fold. This diluted solution was allowed to stand for an extended period at each of the temperatures of 4° C., 25° C. and 50° C. The extent of decomposition over time was analyzed by HPLC (column: CAPCELL PAK C-18 UG120, 4.6×250 mm, solvent: 50% acetonitrile+0.1% trifluoroacetic acid, flow rate: 1 ml/min, wavelength: 210 nm). For comparison, a solution prepared by similarly diluting the specific α-ketol fatty acid derivative (2A) was allowed to stand for an extended period at each of 25° C. and 50° C. The extent of decomposition was similarly investigated.
# [2] = tested on: morning glory (variety: murasaki); test: Activity in increasing flower budding of morning glory (spray, dark treatment, flower buds counted on the 14th day); format: in vivo
# Description: Seeds of morning glory (variety: murasaki) (9 g) were subjected to concentrated sulfuric acid treatment for 20 minutes, and then allowed to stand under water flow overnight.
# Subsequently, the seeds were placed on wet sea sand such that the emerging sites of the roots were directed upward for 24 hours, to thereby produce roots. The seeds having roots were planted in sea sand at a position 1 cm below the surface of the sand, and then cultured under continuous light irradiation (for about five days).
# The entire plant bodies of the morning glory having leaves produced through this culture were transferred into a culture solution KNO3(250 mg), NH4NO3 (250 mg), KH2PO4 (250 mg), MgSO4.7H2O (250 mg), MnSO4.4H2O (1 mg), Fe-citrate n-hydrate (6 mg), H3BO3 (2 mg), CuSO4.5H2O (0.1 mg), ZeSO4.7H2O (0.2 mg), Na2MoO4.2H2O (0.2 mg), Ca(H2PO4)2.2H2O (250 mg) in distilled water (1,000 mL)].
# Water or a 0.01, 0.1, 1 or 100 μM specific α-ketol fatty acid (1A) aqueous solution was sprayed to the cultured system in an amount of 0.1 mL/plant, then the plants were treated by darkness (for 13.5 hours).
# Thereafter, the morning glory was grown under continuous light irradiation at 25° C. for 14 days, and on the 14th day the number of the flower buds was measured.
# The results of eight specimens of morning glory were averaged.
# [3] = tested on: morning glory (variety: murasaki); details: from Japanese Patent Publication (A) No. 11-29410; cited from earlier work
stability at 4° C. compared with 25° C. and 50° C. ([1]; 4° C.),stability compared with (2A) ([1]; 25° C.),stability compared with (2A) ([1]; 50° C.),Compound,optimum concentration relative to the optimum concentration of (2A) ([2]; 1 μM versus 100 μM),"number of flower buds formed, increase ([2]; 0.01-100 μM aqueous solution sprayed 0.1 mL/plant, darkness 13.5 hours, counted on 14th day, average of eight specimens, water 1.25 buds/plant (FIG. 2)) [%]","optimum concentration for flower bud formation ([2]; morning glory, sprayed aqueous solution, FIG. 2) [µM]",optimum concentration for flower bud formation [3] [µM]
far superior in stability,superior in stability,superior in stability,"CCC(O)C(O)C/C=C\CC(=O)C(O)CCCCCCCC(=O)O (stereo not shown) [compound (1A), 9,15,16-trihydroxy-10-oxo-12(Z)-octadecenoic acid]",1/100,≥ 200,1,
,,,"CC/C=C\C/C=C\CC(=O)C(O)CCCCCCCC(=O)O (stereo not shown) [compound (2A), 9-hydroxy-10-oxo-12(Z),15(Z)-octadecadienoic acid]",,,,100
